In BindingDB's records for doi:10.1016/j.bioorg.2016.07.005 (Hazara University, 2016):

Experiments:
Cholinesterase = Cholinesterase (Homo sapiens, UniProt P06276); assay: Butyrylcholinesterase Assay; settings: pH 7.7
Method: Total volume of the reaction mixture was 100 µL containing 60 µL, Na2HPO4 buffer, 50 mM and pH 7.7. Ten µL test compound 0.5 mM well-1 was added followedby the addition of 10 µL (0.5 unit well-1) BChE (Sigma Inc.). […] The reaction was initiated by the addition of 10 µL of 0.5 mM well-1 substrate (butyrylthiocholine chloride). Followed by the addition of 10 µL DTNB, 0.5 mM well-1. […] All experiments were carried out with their respective controls in triplicate.

Acetylcholinesterase = Acetylcholinesterase (Tetronarce californica, UniProt P04058); assay: Acetylcholinesterase Assay; settings: pH 7.7
Method: Total volume of the reaction mixture was 100 µL. It contained 60 µL Na2HPO4 buffer with concentration of 50 mM and pH 7.7. 10 µL test compound (0.5 mM well-1) was added, followed by the addition of 10 µL (0.005 unit well-1) enzyme. […] Then contents were pre-incubated for 10 min at 37 °C. The reaction was initiated by the addition of 10 µL of 0.5 mM well-1 substrate (acetylthiocholine iodide), followed by the addition of 10 µL DTNB (0.5 mM well-1). […] All experiments were carried out with their respective controls in triplicate.

Chain of Cholinesterase (P06276 whole entry): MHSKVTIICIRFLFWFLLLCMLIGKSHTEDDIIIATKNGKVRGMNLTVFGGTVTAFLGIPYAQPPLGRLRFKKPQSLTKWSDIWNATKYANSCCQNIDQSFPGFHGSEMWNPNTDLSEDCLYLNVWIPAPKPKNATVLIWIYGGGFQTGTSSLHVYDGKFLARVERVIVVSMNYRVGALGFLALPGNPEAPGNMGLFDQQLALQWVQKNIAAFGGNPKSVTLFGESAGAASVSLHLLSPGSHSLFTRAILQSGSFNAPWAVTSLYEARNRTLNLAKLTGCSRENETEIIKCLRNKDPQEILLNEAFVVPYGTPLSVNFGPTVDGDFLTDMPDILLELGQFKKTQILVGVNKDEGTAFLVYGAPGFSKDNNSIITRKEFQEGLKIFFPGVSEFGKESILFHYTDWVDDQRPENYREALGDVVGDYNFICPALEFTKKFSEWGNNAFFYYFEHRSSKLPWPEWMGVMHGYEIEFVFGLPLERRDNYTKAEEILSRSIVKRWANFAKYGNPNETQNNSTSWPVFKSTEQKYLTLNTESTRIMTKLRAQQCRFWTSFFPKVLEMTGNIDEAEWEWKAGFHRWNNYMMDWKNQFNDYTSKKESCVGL
Chain of Acetylcholinesterase (P04058 whole entry): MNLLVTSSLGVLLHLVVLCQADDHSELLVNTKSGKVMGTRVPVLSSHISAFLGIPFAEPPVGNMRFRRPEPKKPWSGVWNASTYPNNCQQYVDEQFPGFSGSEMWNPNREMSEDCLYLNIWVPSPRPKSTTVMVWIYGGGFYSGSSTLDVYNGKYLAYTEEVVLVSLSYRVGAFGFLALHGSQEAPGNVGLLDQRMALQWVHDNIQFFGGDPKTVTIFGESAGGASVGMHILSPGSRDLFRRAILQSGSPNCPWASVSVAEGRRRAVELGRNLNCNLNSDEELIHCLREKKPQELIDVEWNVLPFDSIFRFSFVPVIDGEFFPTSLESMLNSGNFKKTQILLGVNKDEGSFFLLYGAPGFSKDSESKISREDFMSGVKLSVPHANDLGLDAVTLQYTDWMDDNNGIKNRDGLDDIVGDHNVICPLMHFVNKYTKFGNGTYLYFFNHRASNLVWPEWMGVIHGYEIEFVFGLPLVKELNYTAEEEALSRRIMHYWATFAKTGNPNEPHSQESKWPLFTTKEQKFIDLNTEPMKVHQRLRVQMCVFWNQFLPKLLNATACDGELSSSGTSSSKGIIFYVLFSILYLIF

In the case of `COc1cccc(/C=N\NC(=O)c2ccccc2O)c1OC` [N'-[(Z)-(2,3-dimethoxyphenyl)methylidene]-2-hydroxybenzohydrazide (15)], the IC50 (Cholinesterase) is reported as 61.6 µM.
`O=C(N/N=C\c1cccc(C(F)(F)F)c1)c1ccccc1O` [2-Hydroxy-N'-{(Z)-[3-(trifluoromethyl)phenyl]methylidene} benzohydrazide (14)] was tested, and the IC50 (Acetylcholinesterase) was 56.1 µM and the IC50 (Cholinesterase) was 112 µM.
`O=C(N/N=C\c1ccc(O)cc1)c1ccccc1O` [2-Hydroxy-N'-[(Z)-(4-hydroxyphenyl)methylidene]benzohydrazide (28)] was tested, and the IC50 (Cholinesterase) was 424 µM.
`CC(C)c1ccc(/C=N\NC(=O)c2ccccc2O)cc1` [2-Hydroxy-N'-[(Z)-(4-isopropylphenyl)methylidene]benzohydrazide (12)] gave an IC50 (Acetylcholinesterase) of 39.8 µM and an IC50 (Cholinesterase) of 71.8 µM.
`O=C(N/N=C\c1cc(Cl)cc(Cl)c1O)c1ccccc1O` [N'-[(Z)-(3,5-dichloro-2-hydroxyphenyl)methylidene]-2-hydroxybenzohydrazide (24)] was tested, and the IC50 (Acetylcholinesterase) was 8.41 µM and the IC50 (Cholinesterase) was 9.22 µM.
`O=C(N/N=C\c1cccs1)c1ccccc1O` [2-Hydroxy-N'-[(Z)-2-thienylmethylidene]benzohydrazide (23)] showed an IC50 (Acetylcholinesterase) of 430 µM.
`CCCCOc1ccc(/C=N\NC(=O)c2ccccc2O)cc1` [N0-[(Z)-(4-butoxyphenyl)methylidene]-2-hydroxybenzohydrazide (7)] was tested, and the IC50 (Acetylcholinesterase) was 15.4 µM and the IC50 (Cholinesterase) was 41.8 µM.
In the case of `O=C(N/N=C\c1ccc(Cl)cc1Cl)c1ccccc1O` [N'-[(Z)-(2,4-dichlorophenyl)methylidene]-2-hydroxybenzohydrazide (6)], the IC50 (Acetylcholinesterase) is reported as 18.1 µM and the IC50 (Cholinesterase) is reported as 43.2 µM.
`CCOc1ccccc1/C=N\NC(=O)c1ccccc1O` [N'-[(Z)-(2-ethoxyphenyl)methylidene]-2-hydroxybenzohydrazide (20)] was tested, and the IC50 (Acetylcholinesterase) was 415 µM and the IC50 (Cholinesterase) was 116 µM.
With `O=C(N/N=C\c1ccc(Br)cc1F)c1ccccc1O` [N'-[(Z)-(4-bromo-2-fluorophenyl)methylidene]-2-hydroxybenzohydrazide (26)] the IC50 (Acetylcholinesterase) was 369 µM and the IC50 (Cholinesterase) was 452 µM.
With `O=C(N/N=C\c1ccc(OCc2ccccc2)cc1)c1ccccc1O` [N'-{(Z)-[4-(benzyloxy)phenyl]methylidene}-2-hydroxybenzohydrazide (3)] the IC50 (Acetylcholinesterase) was 8.12 µM and the IC50 (Cholinesterase) was 37.8 µM.
In the case of `O=C(N/N=C\c1ccc(C(F)(F)F)cc1)c1ccccc1O` [2-Hydroxy-N'-{(Z)-[4-(trifluoromethyl)phenyl]methylidene} benzohydrazide (18)], the IC50 (Acetylcholinesterase) is reported as 48.5 µM and the IC50 (Cholinesterase) is reported as 213 µM.
`O=C(N/N=C\c1cc(F)ccc1Br)c1ccccc1O` [N'-[(Z)-(2-bromo-5-fluorophenyl)methylidene]-2-hydroxybenzohydrazide (21)] was tested, and the IC50 (Acetylcholinesterase) was 312 µM and the IC50 (Cholinesterase) was 267 µM.
`CC(C)(C)c1ccc(/C=N\NC(=O)c2ccccc2O)cc1` [N'-{(Z)-[4-(tert-butyl)phenyl]methylidene}-2-hydroxybenzohydrazide (13)] was tested, and the IC50 (Acetylcholinesterase) was 92.4 µM and the IC50 (Cholinesterase) was 6.51 µM.
`O=C(N/N=C\c1cccc(O)c1)c1ccccc1O` [2-Hydroxy-N'-[(Z)-(3-hydroxyphenyl)methylidene]benzohydrazide (27)] showed an IC50 (Acetylcholinesterase) of 355 µM.
With `COc1ccc(/C=N\NC(=O)c2ccccc2O)c(OC)c1` [N'-[(Z)-(2,4-dimethoxyphenyl)methylidene]-2-hydroxybenzohydrazide (9)] the IC50 (Cholinesterase) was 293 µM.
`O=C(N/N=C\c1c2ccccc2cc2ccccc12)c1ccccc1O` [(Z)-N'-(anthracen-10-ylmethylene)-2-hydroxybenzohydrazide (10)] showed an IC50 (Acetylcholinesterase) of 4.12 µM.
`COc1ccc(/C=N\NC(=O)c2ccccc2O)cc1Br` [N'-[(Z)-(3-bromo-4-methoxyphenyl)methylidene]-2-hydroxybenzohydrazide (17)] gave an IC50 (Acetylcholinesterase) of 19.8 µM and an IC50 (Cholinesterase) of 38.4 µM.
Work on `O=C(N/N=C\c1cccc(Br)c1)c1ccccc1O` [N'-[(Z)-(3-bromophenyl)methylidene]-2-hydroxybenzohydrazide (19)] yielded an IC50 (Acetylcholinesterase) of 156 µM and an IC50 (Cholinesterase) of 121 µM.
In the case of `O=C(N/N=C\c1ccc(F)c(Br)c1)c1ccccc1O` [N'-[(Z)-(3-bromo-4-fluorophenyl)methylidene]-2-hydroxybenzohydrazide (25)], the IC50 (Acetylcholinesterase) is reported as 311 µM.
With `CCOc1ccc(/C=N\NC(=O)c2ccccc2O)cc1` [N'-[(Z)-(4-ethoxyphenyl)methylidene]-2-hydroxybenzohydrazide (8)] the IC50 (Acetylcholinesterase) was 218 µM and the IC50 (Cholinesterase) was 116 µM.
Work on `CSc1ccc(/C=N\NC(=O)c2ccccc2O)cc1` [2-Hydroxy-N'-{(Z)-[4-(methylsulfanyl)phenyl]methylidene} benzohydrazide (22)] yielded an IC50 (Acetylcholinesterase) of 436 µM.
Compound `COc1ccc(/C=N\NC(=O)c2ccccc2O)cc1OCc1ccccc1` [N'-{(Z)-[3-(benzyloxy)-4-methoxyphenyl]methylidene}-2-hydroxybenzohydrazide (16)] has an IC50 (Cholinesterase) of 86.2 µM.
`COc1cccc(OC)c1/C=N\NC(=O)c1ccccc1O` [N'-[(Z)-(2,6-dimethoxyphenyl)methylidene]-2-hydroxybenzohydrazide (2)] gave an IC50 (Acetylcholinesterase) of 461 µM and an IC50 (Cholinesterase) of 79.5 µM.
`O=C(N/N=C\c1ccco1)c1ccccc1O` [N'-[(Z)-2-furylmethylidene]-2-hydroxybenzohydrazide (11)] showed an IC50 (Cholinesterase) of 418 µM.
